Results as given in PubChem BioAssay (NCI).
Several values for one entry are separate records, joined by “and”; a condition that tells them apart may be missing. Identical values can stand only once.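 Compound exposure: 48 hours, 5 concentrations, 96-well plates. GI50 marks 50% less growth. Definition used: TGI = concentration required for complete inhibition of growth.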

How the values were obtained:
Experiment in all cases: inhibition of tumour cell growth, NCI panel, 48 h
NCI-H460 lung = test system: NCI-H460 lung
SK-MEL-28 melanoma = test system: SK-MEL-28 melanoma
OVCAR-5 ovarian = test system: OVCAR-5 ovarian
A549 NSCLC = test system: A549 NSCLC
NCI-H23 lung = test system: NCI-H23 lung
UACC-257 melanoma = test system: UACC-257 melanoma
LOX IMVI melanoma = test system: LOX IMVI melanoma
SNB-75 CNS = test system: SNB-75 CNS
OVCAR-3 ovarian = test system: OVCAR-3 ovarian
COLO 205 colon = test system: COLO 205 colon

Row | Structure (SMILES) | GI50 (NCI-H460 lung) | TGI (NCI-H460 lung) | GI50 (SK-MEL-28 melanoma) | TGI (SK-MEL-28 melanoma) | GI50 (OVCAR-5 ovarian) | TGI (OVCAR-5 ovarian) | GI50 (A549 NSCLC) | TGI (A549 NSCLC) | GI50 (NCI-H23 lung) | TGI (NCI-H23 lung) | GI50 (UACC-257 melanoma) | TGI (UACC-257 melanoma) | GI50 (LOX IMVI melanoma) | TGI (LOX IMVI melanoma) | GI50 (SNB-75 CNS) | TGI (SNB-75 CNS) | GI50 (OVCAR-3 ovarian) | TGI (OVCAR-3 ovarian) | GI50 (COLO 205 colon) | TGI (COLO 205 colon)
1 | C/C([O-])=C1\Cc2ccccc2C1=O.C/C([O-])=C1\Cc2ccccc2C1=O.CC[O-].CC[O-].[Ti+4] | 10.3 µM | 44.7 µM | 17.7 µM | 38.1 µM | 30.5 µM | 72.9 µM | 28.5 µM | > 100 µM | 20.2 µM | 62.2 µM | 38.6 µM | > 100 µM | 13 µM | 32 µM | 21.6 µM | 45.9 µM | 24 µM | > 100 µM | 27.4 µM | 67.4 µM
2 | CCC(CC)n1cc(C(=O)NC(=O)NCCCCCOC(=O)CCCCCCCCCCC(=O)OCCCCCNC(=O)NC(=O)c2cn(C(CC)CC)c(=O)[nH]c2=O)c(=O)[nH]c1=O | – | > 100 µM | – | > 100 µM | – | > 100 µM | – | > 100 µM | – | > 100 µM | – | > 100 µM | – | > 100 µM | – | 53.5 µM | – | > 100 µM | – | > 100 µM
3 | C=CC1=C[C@@H]2[C@@H]3O[C@]4(CC[C@H](O4)[C@@H](C)C[C@@H](O)C3=O)C[C@H](O)C3=NCC[C@@]32CC1 | < 0.00333 µM | < 0.00333 µM | < 0.00333 µM | < 0.00333 µM | < 0.00333 µM | 0.00513 µM | < 0.00333 µM | 0.00459 µM | < 0.00333 µM | < 0.00333 µM | < 0.00333 µM | 0.00486 µM | < 0.00333 µM | < 0.00333 µM | < 0.00333 µM | < 0.00333 µM | < 0.00333 µM | < 0.00333 µM | < 0.00333 µM | < 0.00333 µM
4 | N#C/C(=C1\NN=C(N)C(c2ccc(Cl)cc2)=C1O)c1ccc(Cl)cc1 | – | > 100 µM | – | > 100 µM | – | > 100 µM | – | > 100 µM | – | > 100 µM | – | > 100 µM | – | > 100 µM | – | > 100 µM | – | > 100 µM | – | > 100 µM
5 | CC1=CCC(OC(=O)C(C)(C)CCC(O)(C(=O)OC2(C(C)C)CCC3(C)OC3C2)C(C)C)(C(C)C)CC1 (stereo not given) | 0.57 µM | 1.39 µM | 0.993 µM | 3.01 µM | 0.695 µM | 1.39 µM | 0.279 µM | 1.16 µM | 0.113 µM | 0.301 µM | 0.727 µM | 1.5 µM | 0.0764 µM | 0.15 µM | 0.0258 µM | 1.41 µM | 0.0833 µM | 0.166 µM | 0.496 µM | 1.59 µM
6 | COC(=O)C1C2C=CC(C2)C1(C(=O)OC)S(=O)CC12CCC(CC1O)C2(C)C (stereo not given) | – | > 100 µM | – | > 100 µM | – | > 100 µM | – | > 100 µM | – | > 100 µM | – | > 100 µM | – | 40 µM | – | > 100 µM | – | > 100 µM | – | > 100 µM
7 | O=c1c2cccc3cccc(c4oc5c6cccc7cccc(c(=O)c5c14)c76)c32 | – | 18.1 µM | – | 17.7 µM | – | > 31.6 µM | – | 25.4 µM | – | 20.1 µM | – | 30 µM | – | 17.2 µM | – | 21.7 µM | – | 17 µM | – | 15.6 µM
8 | COc1ccc(C(=O)COc2cccc(/C=C3\CSc4ccccc4C3=O)c2)cc1 | 3.56 µM | 12 µM | 2.04 µM | 3.71 µM | 2.18 µM | 4.77 µM | 9.04 µM | 39.5 µM | 2.14 µM | 4.78 µM | 2.49 µM | 6.12 µM | 1.54 µM | 2.98 µM | 4.85 µM | 18.4 µM | 1.88 µM | 3.65 µM | 2.93 µM | 6.95 µM
9 | CC(=O)Nc1ccccc1C=C1c2ccccc2-c2ccccc21 | – | > 100 µM | – | > 100 µM | – | > 100 µM | – | > 100 µM | – | > 100 µM | – | > 100 µM | – | > 100 µM | – | 33.7 µM | – | 73 µM | – | > 100 µM
10 | COc1ccc2c(c1)c(-c1nc(-c3c[nH]c4ncccc34)cs1)cn2CCCCN1CCOCC1 | 1.99 µM | 3.9 µM | 1.85 µM | 3.4 µM | 1.99 µM | 4.02 µM | 2.23 µM | 4.28 µM | 2.14 µM | 5.08 µM | 2.18 µM | 3.85 µM | 1.71 µM | 3.19 µM | 1.31 µM | 2.85 µM | 1.87 µM | 3.74 µM | 1.85 µM | 3.58 µM
11 | O=C1OC(CC(=O)c2ccc(Cl)cc2Cl)C(Cl)=C1Cl (stereo not given) | – | > 100 µM | – | 37.2 µM | – | > 62.8 µM | – | > 100 µM | – | > 65.7 µM | – | > 100 µM | – | 57.9 µM | – | > 61.1 µM | – | > 100 µM | – | 52.6 µM
12 | CN(C)c1ccc(-c2cc(-c3ccc(Nc4nc(Nc5ccccc5)nc(Nc5ccc(Cl)cc5)n4)cc3)nc(N)n2)cc1 | 3.71 µM | 14.1 µM | 10.8 µM | 29.9 µM | 16.1 µM | 91.5 µM | 5.34 µM | > 100 µM | 8.47 µM | 53.5 µM | 5.81 µM | 37.4 µM | 5.03 µM | 46.2 µM | 3.27 µM | 37.7 µM | 5.77 µM | 28.9 µM | 2.04 µM | 11.6 µM
13 | C=CN1C(=O)OC[C@@H]1c1ccccc1 | – | > 100 µM | – | > 100 µM | – | > 100 µM | – | > 100 µM | – | > 100 µM | – | > 100 µM | – | > 100 µM | – | > 100 µM | – | > 100 µM | – | > 100 µM
14 | c1cc(CCN2CCCCC2)ccn1 | – | > 100 µM | – | > 100 µM | – | > 100 µM | – | > 100 µM | – | > 100 µM | – | > 100 µM | – | > 100 µM | – | > 100 µM | – | > 100 µM | – | > 100 µM
15 | O=C1/C(=C/c2ccccc2F)CNC/C1=C\c1ccccc1F | 0.693 µM and 0.458 µM | 3.29 µM and 3.3 µM | 2.02 µM and 1.79 µM | 4.7 µM and 3.63 µM | 0.935 µM and 1.91 µM | 2.34 µM and 3.96 µM | 1.81 µM and 1.27 µM | 9.35 µM and 5.59 µM | 0.693 µM and 0.838 µM | 1.81 µM and 3.27 µM | 1.62 µM and 1.73 µM | 4.16 µM and 3.95 µM | 0.318 µM and 0.186 µM | 1.22 µM and 0.461 µM | 2 µM and 1.54 µM | 4.74 µM and 4.33 µM | 0.89 µM and 0.309 µM | 3.22 µM and 0.805 µM | 0.82 µM and 0.584 µM | 2.57 µM and 1.82 µM
